Data as given in the NIST ThermoML archive (doi:10.1021/je900503p).
Numbers after ± are expanded uncertainties.

Legend:
[1] = relative permittivity at zero frequency (dimensionless); xn = mol fraction of the nth substance listed; settings: 101 kPa, Liquid, Dekameter
[2] = xn = mol fraction of the nth substance listed; settings: 101 kPa, Liquid
[3] = refractive index (Na D-line) (dimensionless); xn = mol fraction of the nth substance listed; settings: 101 kPa, Liquid

O=C1CCCO1 [γ-butyrolactone] + CCC(C)O
Settings	mass density [kg/m3]	refractive index	relative permittivity at zero frequency
[1], 293.15 K, x1 = 0.1009	–	–	17.91 ± 0.06
[1], 293.15 K, x1 = 0.2112	–	–	19.08 ± 0.06
[1], 293.15 K, x1 = 0.3009	–	–	20.56 ± 0.06
[1], 293.15 K, x1 = 0.4008	–	–	22.53 ± 0.06
[1], 293.15 K, x1 = 0.5088	–	–	25.16 ± 0.06
[1], 293.15 K, x1 = 0.6003	–	–	27.69 ± 0.06
[1], 293.15 K, x1 = 0.7001	–	–	30.91 ± 0.06
[1], 293.15 K, x1 = 0.8055	–	–	34.66 ± 0.06
[1], 293.15 K, x1 = 0.9011	–	–	38.29 ± 0.06
[1], 298.15 K, x1 = 0.1009	–	–	16.66 ± 0.06
[1], 298.15 K, x1 = 0.2112	–	–	17.89 ± 0.06
[1], 298.15 K, x1 = 0.3009	–	–	19.48 ± 0.06
[1], 298.15 K, x1 = 0.4008	–	–	21.48 ± 0.06
[1], 298.15 K, x1 = 0.5088	–	–	24.01 ± 0.06
[1], 298.15 K, x1 = 0.6003	–	–	26.59 ± 0.06
[1], 298.15 K, x1 = 0.7001	–	–	29.67 ± 0.06
[1], 298.15 K, x1 = 0.8055	–	–	33.02 ± 0.06
[1], 298.15 K, x1 = 0.9011	–	–	37.47 ± 0.06
[1], 303.15 K, x1 = 0.1009	–	–	16.75 ± 0.06
[1], 303.15 K, x1 = 0.2112	–	–	18.21 ± 0.06
[1], 303.15 K, x1 = 0.3009	–	–	19.37 ± 0.06
[1], 303.15 K, x1 = 0.4008	–	–	21.28 ± 0.06
[1], 303.15 K, x1 = 0.5088	–	–	23.71 ± 0.06
[1], 303.15 K, x1 = 0.6003	–	–	26.26 ± 0.06
[1], 303.15 K, x1 = 0.7001	–	–	29.48 ± 0.06
[1], 303.15 K, x1 = 0.8055	–	–	33.39 ± 0.06
[1], 303.15 K, x1 = 0.9011	–	–	36.73 ± 0.06
[1], 313.15 K, x1 = 0.1009	–	–	16.09 ± 0.06
[1], 313.15 K, x1 = 0.2112	–	–	17.48 ± 0.06
[1], 313.15 K, x1 = 0.3009	–	–	18.55 ± 0.06
[1], 313.15 K, x1 = 0.4008	–	–	20.43 ± 0.06
[1], 313.15 K, x1 = 0.5088	–	–	22.86 ± 0.06
[1], 313.15 K, x1 = 0.6003	–	–	25.55 ± 0.06
[1], 313.15 K, x1 = 0.7001	–	–	28.79 ± 0.06
[1], 313.15 K, x1 = 0.8055	–	–	32.73 ± 0.06
[1], 313.15 K, x1 = 0.9011	–	–	36.05 ± 0.06
[2], 293.15 K, x1 = 0.0564	820.99 ± 0.45	–	–
[2], 293.15 K, x1 = 0.1213	839.11 ± 0.43	–	–
[2], 293.15 K, x1 = 0.2541	877.55 ± 0.39	–	–
[2], 293.15 K, x1 = 0.3003	891.34 ± 0.38	–	–
[2], 293.15 K, x1 = 0.3895	918.62 ± 0.35	–	–
[2], 293.15 K, x1 = 0.4574	939.95 ± 0.34	–	–
[2], 293.15 K, x1 = 0.5005	953.71 ± 0.32	–	–
[2], 293.15 K, x1 = 0.5876	982.13 ± 0.3	–	–
[2], 293.15 K, x1 = 0.6442	1001.11 ± 0.29	–	–
[2], 293.15 K, x1 = 0.7127	1024.55 ± 0.34	–	–
[2], 293.15 K, x1 = 0.8006	1055.41 ± 0.41	–	–
[2], 293.15 K, x1 = 0.8554	1075.08 ± 0.46	–	–
[2], 293.15 K, x1 = 0.9262	1101.09 ± 0.53	–	–
[2], 293.15 K, x1 = 0.9785	1120.58 ± 0.58	–	–
[2], 298.15 K, x1 = 0.0564	817.52 ± 0.46	–	–
[2], 298.15 K, x1 = 0.1213	835.59 ± 0.44	–	–
[2], 298.15 K, x1 = 0.2541	873.9 ± 0.4	–	–
[2], 298.15 K, x1 = 0.3003	887.63 ± 0.39	–	–
[2], 298.15 K, x1 = 0.3895	914.8 ± 0.36	–	–
[2], 298.15 K, x1 = 0.4574	936.03 ± 0.34	–	–
[2], 298.15 K, x1 = 0.5005	949.73 ± 0.33	–	–
[2], 298.15 K, x1 = 0.5876	978.07 ± 0.31	–	–
[2], 298.15 K, x1 = 0.6442	996.91 ± 0.29	–	–
[2], 298.15 K, x1 = 0.7127	1020.25 ± 0.34	–	–
[2], 298.15 K, x1 = 0.8006	1050.96 ± 0.41	–	–
[2], 298.15 K, x1 = 0.8554	1070.55 ± 0.45	–	–
[2], 298.15 K, x1 = 0.9262	1096.44 ± 0.52	–	–
[2], 298.15 K, x1 = 0.9785	1115.89 ± 0.57	–	–
[2], 303.15 K, x1 = 0.0564	814 ± 0.46	–	–
[2], 303.15 K, x1 = 0.1213	831.99 ± 0.44	–	–
[2], 303.15 K, x1 = 0.2541	870.15 ± 0.4	–	–
[2], 303.15 K, x1 = 0.3003	883.83 ± 0.39	–	–
[2], 303.15 K, x1 = 0.3895	910.88 ± 0.36	–	–
[2], 303.15 K, x1 = 0.4574	932.02 ± 0.34	–	–
[2], 303.15 K, x1 = 0.5005	945.67 ± 0.33	–	–
[2], 303.15 K, x1 = 0.5876	973.9 ± 0.31	–	–
[2], 303.15 K, x1 = 0.6442	992.68 ± 0.3	–	–
[2], 303.15 K, x1 = 0.7127	1015.92 ± 0.33	–	–
[2], 303.15 K, x1 = 0.8006	1046.52 ± 0.4	–	–
[2], 303.15 K, x1 = 0.8554	1066.03 ± 0.44	–	–
[2], 303.15 K, x1 = 0.9262	1091.83 ± 0.51	–	–
[2], 303.15 K, x1 = 0.9785	1111.21 ± 0.56	–	–
[2], 313.15 K, x1 = 0.0564	805.57 ± 0.48	–	–
[2], 313.15 K, x1 = 0.1213	823.45 ± 0.46	–	–
[2], 313.15 K, x1 = 0.2541	861.53 ± 0.41	–	–
[2], 313.15 K, x1 = 0.3003	875.2 ± 0.4	–	–
[2], 313.15 K, x1 = 0.3895	902.14 ± 0.38	–	–
[2], 313.15 K, x1 = 0.4574	923.19 ± 0.36	–	–
[2], 313.15 K, x1 = 0.5005	936.83 ± 0.35	–	–
[2], 313.15 K, x1 = 0.5876	964.91 ± 0.32	–	–
[2], 313.15 K, x1 = 0.6442	983.59 ± 0.31	–	–
[2], 313.15 K, x1 = 0.7127	1006.75 ± 0.31	–	–
[2], 313.15 K, x1 = 0.8006	1037.12 ± 0.38	–	–
[2], 313.15 K, x1 = 0.8554	1056.44 ± 0.43	–	–
[2], 313.15 K, x1 = 0.9262	1081.97 ± 0.49	–	–
[2], 313.15 K, x1 = 0.9785	1101.4 ± 0.54	–	–
[3], 293.15 K, x1 = 0.1009	–	1.4004 ± 0.0012	–
[3], 293.15 K, x1 = 0.2112	–	1.4009 ± 0.0012	–
[3], 293.15 K, x1 = 0.3009	–	1.4021 ± 0.0012	–
[3], 293.15 K, x1 = 0.4008	–	1.4043 ± 0.0012	–
[3], 293.15 K, x1 = 0.5088	–	1.4076 ± 0.0012	–
[3], 293.15 K, x1 = 0.6003	–	1.4112 ± 0.0013	–
[3], 293.15 K, x1 = 0.7001	–	1.4162 ± 0.0013	–
[3], 293.15 K, x1 = 0.8055	–	1.4221 ± 0.0013	–
[3], 293.15 K, x1 = 0.9011	–	1.4285 ± 0.0013	–
[3], 298.15 K, x1 = 0.1009	–	1.3976 ± 0.0012	–
[3], 298.15 K, x1 = 0.2112	–	1.3978 ± 0.0012	–
[3], 298.15 K, x1 = 0.3009	–	1.3986 ± 0.0012	–
[3], 298.15 K, x1 = 0.4008	–	1.4005 ± 0.0012	–
[3], 298.15 K, x1 = 0.5088	–	1.4036 ± 0.0012	–
[3], 298.15 K, x1 = 0.6003	–	1.4071 ± 0.0013	–
[3], 298.15 K, x1 = 0.7001	–	1.4119 ± 0.0013	–
[3], 298.15 K, x1 = 0.8055	–	1.4175 ± 0.0013	–
[3], 298.15 K, x1 = 0.9011	–	1.4236 ± 0.0013	–
[3], 303.15 K, x1 = 0.1009	–	1.394 ± 0.0012	–
[3], 303.15 K, x1 = 0.2112	–	1.3943 ± 0.0012	–
[3], 303.15 K, x1 = 0.3009	–	1.3952 ± 0.0012	–
[3], 303.15 K, x1 = 0.4008	–	1.3974 ± 0.0012	–
[3], 303.15 K, x1 = 0.5088	–	1.4004 ± 0.0012	–
[3], 303.15 K, x1 = 0.6003	–	1.4036 ± 0.0013	–
[3], 303.15 K, x1 = 0.7001	–	1.4082 ± 0.0013	–
[3], 303.15 K, x1 = 0.8055	–	1.4135 ± 0.0013	–
[3], 303.15 K, x1 = 0.9011	–	1.4195 ± 0.0013	–
[3], 313.15 K, x1 = 0.1009	–	1.3909 ± 0.0012	–
[3], 313.15 K, x1 = 0.2112	–	1.3906 ± 0.0012	–
[3], 313.15 K, x1 = 0.3009	–	1.3912 ± 0.0012	–
[3], 313.15 K, x1 = 0.4008	–	1.3925 ± 0.0012	–
[3], 313.15 K, x1 = 0.5088	–	1.3952 ± 0.0012	–
[3], 313.15 K, x1 = 0.6003	–	1.3984 ± 0.0013	–
[3], 313.15 K, x1 = 0.7001	–	1.4023 ± 0.0013	–
[3], 313.15 K, x1 = 0.8055	–	1.4078 ± 0.0013	–
[3], 313.15 K, x1 = 0.9011	–	1.4133 ± 0.0013	–
